Source: article PMC11002876, “KcsA-Kv1.x chimeras with complete ligand-binding sites provide improved predictivity for screening selective Kv1.x blockers” (The Journal of Biological Chemistry, 2024)
Where two headings read alike, the source gives them in different places. Where a SMILES comes first, the peptide text is derived from it.

Columns and labels:
[1] = target: T1, KcsA-Kv1.2 T-only chimera (Streptomyces lividans, UniProt P0A334, A54E/A57S/G53D/G56E/I60P/L59F/P55R/R52A/R64D/T61S/Y62I); test: Phage-binding competition assay, KcsA-Kv1.2 T-only; design: species or system human Kv1.2 turret in Streptomyces lividans KcsA
T1 sequence (P0A334 1-160 R52A/G53D/A54E/P55R/G56E/A57S/L59F/I60P/T61S/Y62I/R64D): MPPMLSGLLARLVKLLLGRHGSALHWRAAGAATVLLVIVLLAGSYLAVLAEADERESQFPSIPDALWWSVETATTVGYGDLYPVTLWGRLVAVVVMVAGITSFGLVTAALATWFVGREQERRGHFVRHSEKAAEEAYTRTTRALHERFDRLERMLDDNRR
Experimental: Phage stock solutions were diluted to working concentration with phage resuspension buffer supplemented with 2 mM DDM. For protein immobilization, the following amounts were used in a final volume of 50 μl/well: wt KcsA, 0.1 μg; KcsA-Kv1.1 T-only, 0.005 μg; KcsA-Kv1.1 T+F, 0.02 μg; KcsA-Kv1.2 T-only, 0.01 μg; KcsA-Kv1.2 T+F, 0.1 μg; KcsA-Kv1.3 T-only, 0.01 μg; and KcsA-Kv1.3 T+F, 0.1 μg. Protein samples were diluted in 50 μl of storage buffer (20 mM Tris pH8.0, 300 mM KCl, 2 mM DDM) and were added to the designated wells of a Pierce Clear, 96-Well Nickel Coated Plate (15442, Thermo Fisher Scientific), then incubated for 1 h at room temperature on a horizontal shaker at 130 rpm. The plate was blocked for 1 h at room temperature with 180 μl/well TBS-BSA supplemented with 1 mM DDM. Following blocking, the wells were washed 4× with washing buffer (300 μl TBS-Tween, 0.1% v/v) using a Wellwash Versa microplate washer (Thermo Fisher Scientific); then 50 μl phage solution (in TBS-BSA-Tween, 0.1% v/v, 2 mM DDM) at determined phage concentration was added to the wells and incubated for 1 h at room temperature on a horizontal shaker. The plate was washed 4× with washing buffer, then 50 μl anti-M13 IgG HRP (MA5-36125, Invitrogen) diluted to 1:2500 in TBS-Tween (0.1% v/v) was added to the wells and incubated for 1 h at room temperature. The plate was washed again 4× with 300 μl/well washing buffer. Finally, 50 μl/well 1-Step Ultra TMB-ELISA solution (34028, Thermo Fisher Scientific) was added to the wells, and the developing signal was stopped with 50 μl 1M HCl after 5 to 10 min. The light absorbance signal was read at 450 nm with Byonoy absorbance 96 plate reader (Byonoy GmbH).
For protein immobilization, the following amounts were used in a final volume of 50 μl/well: KcsA-Kv1.1 T-only, 0.005 μg; KcsA-Kv1.1 T+F, 0.01 μg; KcsA-Kv1.2 T-only, 0.025 μg; KcsA-Kv1.2 T+F, 0.0125 μg; KcsA-Kv1.3 T-only, 0.01 μg; and KcsA-Kv1.3 T+F, 0.1 μg. Protein samples were diluted in storage buffer. Binding of given concentrations of relevant ligand-displaying phages quantified by light absorbance ([…]) were investigated in a similar manner as in phage ELISA-binding assay, while different concentrations of competing toxin test substances were applied simultaneously. The results were converted to percent inhibitions (percent displacement) of the indicator phage binding, and relative affinities of the tested toxins were assessed by plotting percent displacements against log concentrations and determining half maximal inhibitory concentrations (IC50) by sigmoidal curve fitting using “Sigmoidal dose-response (variable slope) with least squares method” algorithm in GraphPad Prism 8 using the following equation: Y=Bottom+Top−Bottom/1+10^(LogEC50−×)⋅HillSlope

[2] = system: human Kv1.2 channel (hKv1.2); test: Whole-cell patch-clamp, hKv1.2-expressing CHO cells; type: cell-based; conditions: see Table 1 and Fig. S2; 10 nM peptide in patch-clamp
Experimental: Chinese Hamster Ovarian cells were grown in Dulbecco’s modified Eagle’s medium–high glucose supplemented with 10% FBS, 2 mM L-glutamine, 100 U/ml penicillin-g, and 100 μg/ml streptomycin (Invitrogen) at 37 °C in a 5% CO2 and 95% air humidified atmosphere. Cells were passaged twice per week following a 5 min incubation in PBS containing 0.2 g/L EDTA. Chinese Hamster Ovarian cells were transiently transfected with plasmids encoding human Kv1.1 (hKCNA1 gene) and human Kv1.2 (hKCNA2 gene) in pCMV6-AC-GFP plasmid (RG211000 and RC222200, OriGene Technologies) using Lipofectamine 2000 (Invitrogen) following the manufacturer’s protocol, then cultured under standard conditions. Transfected cells were washed twice with 2 ml of extracellular solution (ECS, see below) and replated onto 35 mm polystyrene cell culture dishes (Cellstar, Greiner Bio-One) before the patch-clamp experiments. […] In general, currents were recorded 24 to 36 h after transfection.
Conventional whole-cell patch-clamp electrophysiology was used to record ionic currents. Micropipettes were pulled from GC150F-7.5 borosilicate capillaries (Harvard Apparatus) with tip diameters between 0.5 and 1 μm resulting in a tip resistance of 2 to 8 MΩ in the extracellular (bath) solution. […]
Native peptides, phage-expressed peptides, and positive controls used for them were dissolved in ECS supplemented with 0.1 mg/ml bovine serum albumin (BSA; Sigma-Aldrich Hungary). Bath perfusion around the measured cell with different extracellular solutions was achieved using a gravity flow micro perfusion system using a rate of 0.5 ml/min. […]
Voltage protocols: For measurement of Kv1.1 to 1.3 currents, voltage steps to +50 mV were applied from a holding potential of −120 mV and the peak current was measured every 15 s. […] The remaining current fraction at a given molar concentration was calculated as I/I0, where I0 is the peak current in the absence and I is the peak current at equilibrium block or […] after ∼2 min perfusion by the investigated peptide/phage.

[3] = HgTx1-phage competition, KcsA-Kv1.2 T-only, value given in figure, sigmoidal fit to means of three replicates, read-out: IC50 (Fig. 7E)

Structure (SMILES)	IC50 ([1]; displacement of HgTx1-phage, KcsA-Kv1.2 T-only 0.025 μg/well on nickel-coated plate, mean ± SD (n = 3), NQ = not quantifiable, read-out: IC50, T-only chimera (Kv1.2)) [nM]	potency ranking, Kv1.2 [2]	IC50 [1, 3] [nM]
CC[C@H](C)[C@@H]1NC(=O)[C@@H]2CSSC[C@H](NC(=O)[C@H](CO)NC(=O)[C@@H](N)C(C)C)C(=O)N[C@@H]([C@@H](C)O)C(=O)NCC(=O)N[C@@H](CO)C(=O)N[C@@H](CCCCN)C(=O)N[C@@H](CC(=O)O)C(=O)N[C@@H](CSSC[C@@H](C(=O)N[C@@H](CCCCN)C(=O)N[C@H]3CSSC[C@@H](C(N)=O)NC(=O)CNC(=O)[C@H](Cc4ccc(O)cc4)NC3=O)NC(=O)[C@H](CO)NC(=O)[C@H](CCCCN)NC(=O)[C@H](CC(N)=O)NC1=O)C(=O)N[C@@H](Cc1ccc(O)cc1)C(=O)N[C@@H](C)C(=O)N1CCC[C@H]1C(=O)N[C@H]1CSSC[C@H](NC(=O)CNC(=O)[C@H]([C@@H](C)O)NC(=O)[C@H](CCC(N)=O)NC(=O)[C@H](CCCCN)NC(=O)[C@H](CCCNC(=N)N)NC1=O)C(=O)N1CCC[C@H]1C(=O)N[C@@H](CC(N)=O)C(=O)N[C@@H](C)C(=O)N[C@@H](CCCCN)C(=O)N2 [MTX, Maurotoxin] (HELM PEPTIDE1{V.S.C.T.G.S.K.D.C.Y.A.P.C.R.K.Q.T.G.C.P.N.A.K.C.I.N.K.S.C.K.C.Y.G.C.[am]}$PEPTIDE1,PEPTIDE1,3:R3-24:R3|PEPTIDE1,PEPTIDE1,9:R3-29:R3|PEPTIDE1,PEPTIDE1,13:R3-19:R3|PEPTIDE1,PEPTIDE1,31:R3-34:R3$$$V2.0; N-terminus and C-terminus assumed)	> 1000	MTX > ShK >> KTX1	
CC[C@H](C)[C@@H]1NC(=O)[C@@H](NC(=O)[C@H](CO)NC(=O)[C@@H](N)CCCNC(=N)N)CSSC[C@@H](C(=O)O)NC(=O)[C@H]([C@@H](C)O)NC(=O)CNC(=O)[C@@H]2CSSC[C@@H]3NC(=O)[C@H](CCC(N)=O)NC(=O)[C@H](Cc4ccccc4)NC(=O)[C@H](C)NC(=O)[C@H]([C@@H](C)O)NC(=O)[C@H](CSSC[C@H](NC(=O)[C@H](Cc4ccccc4)NC(=O)[C@H](CO)NC(=O)[C@H](CC(C)C)NC(=O)[C@H](CCCNC(=N)N)NC(=O)[C@H](Cc4ccc(O)cc4)NC(=O)[C@H](CCCCN)NC(=O)[C@H](CCSC)NC(=O)[C@H](CO)NC(=O)[C@H](Cc4c[nH]cn4)NC(=O)[C@H](CCCCN)NC3=O)C(=O)N[C@@H](CCCNC(=N)N)C(=O)N[C@@H](CCCCN)C(=O)N[C@@H]([C@@H](C)O)C(=O)N2)NC(=O)[C@H](CCCNC(=N)N)NC(=O)[C@H](CO)NC(=O)[C@H](CCCCN)NC(=O)[C@@H]2CCCN2C(=O)[C@H]([C@@H](C)CC)NC(=O)[C@H]([C@@H](C)O)NC(=O)[C@H](CC(=O)O)NC1=O [ShK, Stichodactyla toxin]		MTX > ShK >> KTX1	0.0701
CC[C@H](C)[C@H](NC(=O)[C@H](CCC(=O)O)NC(=O)[C@@H](NC(=O)CN)C(C)C)C(=O)N[C@@H](CC(N)=O)C(=O)N[C@H](C(=O)N[C@@H](CCCCN)C(=O)N[C@H]1CSSC[C@@H]2NC(=O)[C@H](CCCCN)NC(=O)CNC(=O)[C@H](Cc3ccccc3)NC(=O)[C@H](CCCNC(=N)N)NC(=O)[C@H](CCSC)NC(=O)CNC(=O)[C@H](C)NC(=O)[C@H](CC(=O)O)NC(=O)[C@H](CCCCN)NC(=O)[C@@H]3CSSC[C@@H](C(=O)N[C@H](C(=O)N4CCC[C@H]4C(=O)N[C@@H](CCCCN)C(=O)O)[C@@H](C)O)NC(=O)[C@H](Cc4c[nH]cn4)NC(=O)[C@H](CSSC[C@H](NC(=O)[C@H](CCC(N)=O)NC(=O)[C@@H]4CCCN4C(=O)[C@H](CO)NC(=O)CNC(=O)[C@H](CO)NC1=O)C(=O)N[C@@H](CC(C)C)C(=O)N[C@@H](CCCCN)C(=O)N1CCC[C@H]1C(=O)N3)NC(=O)[C@H](CCCCN)NC(=O)[C@H](CCCNC(=N)N)NC(=O)[C@H](CC(N)=O)NC(=O)[C@H](CCSC)NC2=O)C(C)C [KTX1, Kaliotoxin-1]		MTX > ShK >> KTX1	0.184
